Source: patent publication US20250281419A1, “LIPID AMINES” (ModernaTX, Inc., priority 2021, published 2025)

Tested on: HeLa cells
Assay: CFTR protein expression assay in HeLa cells (LNPs of Example 2, immunofluorescence)
Type: cell-based, Human
Conditions: compared to buffer (PBS) control, 5 h transfection, 24 h incubation, N=4 wells
Procedure: Lipid nanoparticles were prepared using ethanol drop nanoprecipitation followed by solvent exchange into suitable aqueous buffer using dialysis. An exemplary lipid nanoparticle composition can be prepared by a process where lipids are dissolved in ethanol at a concentration of 12.5 mM and molar ratios of 33:15:11:39.5:1.5 (e.g., ionizable lipid:SA46:phospholipid:cholesterol:PL1). Lipid to mRNA is maintained at a N/P ratio of 4.9. Then mRNA is diluted with 25 mM sodium acetate (pH 5.0) and combined with the lipid mixture at a volume ratio of 3:1 (aqueous: ethanol). Resulting formulations are dialyzed against 20 mM tris/8% sucrose/70 mM sodium chloride (pH 7.4) at a volume of 300 times that of the primary product using Slide-A-Lyzer dialysis cassettes (Thermo Scientific, Rockford, IL, USA) with a molecular cutoff of 10 KDa for at least 18 h. The first dialysis is carried out at room temperature in a digital orbital shaker (VWR, Radnor, PA, USA) at 85 rpm for 3 h and then dialyzed overnight at 4° C. Formulations are concentrated using Amicon ultra-centrifugal filters (EMD Millipore, Billerica, MA, USA), passed through a 0.22-μm filter and stored at 4° C. until use. Lipid nanoparticle solutions are typically adjusted to specific mRNA concentrations between 0.1 and 1 mg/mL. LNPs were prepared according to Example 2. To evaluate LNP cellular uptake and protein expression in vitro, HeLa cells from ATCC.org (ATCC CCL-2) are used. The cells are cultured in complete Minimum Essential Medium (MEM) and are plated in 96 well Cell Carrier Ultra plate with PDL coated surface (PerkinElmer) prior to running an experiment. Buffer control (PBS) and LNPs encapsulating cystic fibrosis transmembrane conductance regulator (CFTR) mRNA were dosed with MEM media in the absence of serum (N=4 replicate wells). LNP transfected cells were incubated for 5 h, followed by media removal and supplementation with complete MEM media. Cells were further incubated in complete MEM media overnight (24 h). Following 24 hr incubation, the cells were fixed with PFA and processed for immunofluorescence (IF) using an anti-CFTR rabbit monoclonal antibody. Briefly, the cells were permeabilized with 0.5% TX-100 for 10 min, blocked with 3% bovine serum albumin (BSA)+PBST for 1 hr at room temperature, and incubated with primary anti-CFTR monoclonal antibody overnight at 4° C. Following primary antibody incubation, the cells were incubated with Alexa 488 conjugated secondary antibody for 30 min, and stained with DAPI and HCS CellMask Blue stain. Between different incubation steps the cells were either washed with PBS or PBST. Cells were imaged using Opera Phoenix spinning disk confocal microscope (PerkinElmer), and CFTR protein expression was detected using the 488 nm channel. The image analysis was performed in Harmony 4.9, with main analysis output being CFTR intensity per cell. The results shown in Table 3a show fold-change in CFTR signal intensity per cell compared to buffer (PBS) control (nanoparticle composition: IL1:Lipid Amine:DSPC:Chol:PL1). The results shown in Table 3b show fold-change in CFTR signal intensity per cell compared to buffer (PBS) control (nanoparticle composition: IL1:Lipid Amine:DPPC:Chol:PL1).

[1] = LNP IL1:Lipid Amine:DPPC:Chol:PL1 with CFTR mRNA
[2] = LNP IL1:Lipid Amine:DSPC:Chol:PL1 with CFTR mRNA

For CC[C@H](CC[C@@H](C)[C@H]1CC[C@H]2[C@@H]3CC=C4C[C@@H](OC(=O)NCCCN(C)C)CC[C@]4(C)[C@H]3CC[C@]12C)C(C)C [SA46, (3S,8S,9S,10R,13R,14S,17R)-17-((2R,5R)-5-Ethyl-6-methylheptan-2-yl)-10,13-dimethyl-2,3,4,7,8,9,10,11,12,13,14,15,16,17-tetradecahydro-1H-cyclopenta[a]phenanthren-3-yl (3-(dimethylamino)propyl)carbamate], the “Average fold-change in CFTR signal intensity per cell ± standard deviation” value [1] was 10.2 ± 0.2 fold-change and the “Average fold-change in CFTR signal intensity per cell ± standard deviation” value [2] was 4.7 ± 0.2 fold-change.
In the case of CC[C@H](CC[C@@H](C)[C@H]1CC[C@H]2[C@@H]3CC=C4C[C@@H](OC(=O)NCCCCN(C)C)CC[C@]4(C)[C@H]3CC[C@]12C)C(C)C [SA47, (3S,8S,9S,10R,13R,14S,17R)-17-((2R,5R)-5-Ethyl-6-methylheptan-2-yl)-10,13-dimethyl-2,3,4,7,8,9,10,11,12,13,14,15,16,17-tetradecahydro-1H-cyclopenta[a]phenanthren-3-yl (4-(dimethylamino)butyl)carbamate], the “Average fold-change in CFTR signal intensity per cell ± standard deviation” value [1] is reported as 10.9 ± 0.4 fold-change and the “Average fold-change in CFTR signal intensity per cell ± standard deviation” value [2] is reported as 4.6 ± 0.4 fold-change.
With CC[C@H](CC[C@@H](C)[C@H]1CC[C@H]2[C@@H]3CC=C4C[C@@H](OC(=O)NCCN(CCO)CCO)CC[C@]4(C)[C@H]3CC[C@]12C)C(C)C [SA48, (3S,8S,9S,10R,13R,14S,17R)-17-((2R,5R)-5-Ethyl-6-methylheptan-2-yl)-10,13-dimethyl-2,3,4,7,8,9,10,11,12,13,14,15,16,17-tetradecahydro-1H-cyclopenta[a]phenanthren-3-yl (2-(bis(2-hydroxyethyl)amino)ethyl)carbamate] the “Average fold-change in CFTR signal intensity per cell ± standard deviation” value [1] was 5.3 ± 1.0 fold-change and the “Average fold-change in CFTR signal intensity per cell ± standard deviation” value [2] was 4.4 ± 0.3 fold-change.
With CC[C@H](CC[C@@H](C)[C@H]1CC[C@H]2[C@@H]3CC=C4C[C@@H](OC(=O)NCCOCCN(C)C)CC[C@]4(C)[C@H]3CC[C@]12C)C(C)C [SA49, (3S,8S,9S,10R,13R,14S,17R)-17-((2R,5R)-5-Ethyl-6-methylheptan-2-yl)-10,13-dimethyl-2,3,4,7,8,9,10,11,12,13,14,15,16,17-tetradecahydro-1H-cyclopenta[a]phenanthren-3-yl (2-(2-(dimethylamino)ethoxy)ethyl)carbamate] the “Average fold-change in CFTR signal intensity per cell ± standard deviation” value [1] was 1 ± 0.0 fold-change and the “Average fold-change in CFTR signal intensity per cell ± standard deviation” value [2] was 1.1 ± 0.0 fold-change.
For CC[C@H](CC[C@@H](C)[C@H]1CC[C@H]2[C@@H]3CC=C4C[C@@H](OC(=O)NCC(C)(C)N(C)C)CC[C@]4(C)[C@H]3CC[C@]12C)C(C)C [SA53, (3S,8S,9S,10R,13R,14S,17R)-17-((2R,5R)-5-Ethyl-6-methylheptan-2-yl)-10,13-dimethyl-2,3,4,7,8,9,10,11,12,13,14,15,16,17-tetradecahydro-1H-cyclopenta[a]phenanthren-3-yl (2-(dimethylamino)-2-methylpropyl)carbamate], the “Average fold-change in CFTR signal intensity per cell ± standard deviation” value [1] was 13.0 ± 1.2 fold-change and the “Average fold-change in CFTR signal intensity per cell ± standard deviation” value [2] was 4.4 ± 0.8 fold-change.
In the case of CC[C@H](CC[C@@H](C)[C@H]1CC[C@H]2[C@@H]3CC=C4C[C@@H](OC(=O)NCC5(N(C)C)CC5)CC[C@]4(C)[C@H]3CC[C@]12C)C(C)C [SA54, (3S,8S,9S,10R,13R,14S,17R)-17-((2R,5R)-5-Ethyl-6-methylheptan-2-yl)-10,13-dimethyl-2,3,4,7,8,9,10,11,12,13,14,15,16,17-tetradecahydro-1H-cyclopenta[a]phenanthren-3-yl ((1-(dimethylamino)cyclopropyl)methyl)carbamate], the “Average fold-change in CFTR signal intensity per cell ± standard deviation” value [1] is reported as 1.3 ± 0.1 fold-change and the “Average fold-change in CFTR signal intensity per cell ± standard deviation” value [2] is reported as 1.5 ± 0.1 fold-change.
In the case of CC[C@H](CC[C@@H](C)[C@H]1CC[C@H]2[C@@H]3CC=C4C[C@@H](OC(=O)NCC(C)(C)N)CC[C@]4(C)[C@H]3CC[C@]12C)C(C)C.Cl [SA55, (3S,8S,9S,10R,13R,14S,17R)-17-((2R,5R)-5-Ethyl-6-methylheptan-2-yl)-10,13-dimethyl-2,3,4,7,8,9,10,11,12,13,14,15,16,17-tetradecahydro-1H-cyclopenta[a]phenanthren-3-yl (2-amino-2-methylpropyl)carbamate Hydrochloride], the “Average fold-change in CFTR signal intensity per cell ± standard deviation” value [1] is reported as 12.1 ± 0.7 fold-change and the “Average fold-change in CFTR signal intensity per cell ± standard deviation” value [2] is reported as 4.9 ± 0.2 fold-change.
